Assay results as given in US4916147A, “3-[(4-Aroyl) phenoxy (or phenylthio)]-cyclopentanecarboxylic acid analogues and treatment of cerebral edema therewith” (Ono Pharmaceutical Co., Ltd., priority 1985, dated 1990).

Key:
[1] = system: organ slice of cat cerebral cortex; assay: Inhibition test on cerebral edema using organ slice of cat cerebral cortex (NaHCO3-stimulated swelling); format: cell-based; details: Felis catus, 50 min, cat cerebral cortex slices, 50 minutes at 37° C., pH 7.4, swelling stimulated with NaHCO3; for inhibition at 0.01 µM: 10^-8 M, read-out: a percentage of inhibition of swelling at 10^-8 M (%); for IC50: read-out: inhibitory activity of cerebral edema (IC50)
Description: THE INHIBITION TEST ON CEREBRAL EDEMA USING ORGAN SLICE OF CAT CEREBRAL CORTEX
The test was carried out by the method described in Journal of Medicinal Chemistry, Vol. 25 (No. 5), 567 (1982).
That is, brain was isolated from a cat weighing 2~4 kg, slices of about 1 mm in thickness was prepared, the white matter substance was removed, and the gray matter substance (100~150 mg a test) was used for a sample. The sample was added to the following incubation medium and incuvated for 50 minutes at 37° C. After the incubation, the sample was immediately weighed again to determine the swelling weight of the sample.
(osmotic pressure, 280~290 mOsm/l)
1. Hepes Buffer (pH 7.4). . . 2.365 ml
adjusted to pH 7.4 by NaOH
2. test compounds [dissolved in the presence of tris(hydroxymethyl) aminomethane] or water. . . 0.01 ml
3. 0.2M NaHCO3 (dissolved by Hepes Buffer, giving the final concentration of 10 mM in medium) or Hepes Buffer. . . 0.125 ml
The test was carried out by using NaHCO3 as a stimulating agent of swelling.
(A) A percentage of swelling when a slice sample was added to incubation medium comprising Hepes Buffer, water and NaHCO3 (defined as maximum of swelling).
(B) A percentage of swelling when a slice sample was added to incubation medium comprising Hepes Buffer and water (defined as maximum inhibition of swelling).
(C) A percentage of swelling when a slice sample was added to incubation medium comprising Hepes Buffer, the test compounds in various concentrations and NaHCO3.
Above-mentioned (A), (B) and (C) were determined. Inhibition percentage of the test compounds was caliculated by the following equation: [formula] IC50 value was determined by dose-response curve as a concentration in which inhibition percentage was 50.
The results are shown Table I. And further, percentages of swelling of (C) was counted, in the case that concentration of test compound of (C) was 10^-8 M, and inhibition of swelling at the concentration of 10^-8 M was determined by percentages of swelling of both (A) and (B).

mice = assay: Acute toxicity test in mice by intravenous administration; format: in vivo; details: dead/treated
Description: For example, in the acute toxicity test in mice by intravenous administration, the mortality of compound of example 1 and 1-3 are 0/6 and 0/6 at the dose of 100 mg/kg and are 6/6 and 4/6 at the dose of 200 mg/kg, respectively.

Structure (SMILES) | inhibition at 0.01 µM [1] | IC50 [1] | mortality (mice; 100 mg/kg) | mortality (mice; 200 mg/kg)
Cc1cccc(C(=O)c2ccc(O[C@H]3CC[C@H](C(=O)O)C3)c(Cl)c2Cl)c1 [Example 1-20, (1S,3S)-3-[{2,3-dichloro-4-(3-methylbenzoyl)}phenoxy]cyclopentanecarboxylicacid] | 78% | – | – | –
O=C(Cc1ccccc1)c1ccc(O[C@H]2CC[C@H](C(=O)O)C2)c(Cl)c1Cl [Example 1-13, (1S,3S)-3-[(2,3-dichloro-4-phenylacetyl)phenoxy]cyclopentanecarboxylic acid] | 36% | – | – | –
O=C(c1ccccc1)c1ccc(O[C@H]2CC[C@H](C(=O)O)C2)c2ccccc12 [Example 4, (1S,3S)-3-(4-benzoyl-1-naphthoxy)cyclopentanecarboxylic acid] | 41% | – | – | –
O=C(c1ccccc1F)c1ccc(O[C@H]2CC[C@H](C(=O)O)C2)c(Cl)c1Cl [Example 1-8, (1S,3S)-3-[{2,3-dichloro-4-(2-fluorobenzoyl)}phenoxy]cyclopentanecarboxylicacid] | 82% | 2.6 nM | – | –
O=C(c1ccc(O[C@H]2CC[C@H](C(=O)O)C2)c(Cl)c1Cl)c1cccc2ccccc12 [Example 1-19, (1S,3S)-3-[{2,3-dichloro-4-(1-naphthoyl)}phenoxy]cyclopentanecarboxylic acid] | 90% | 4.1 nM | – | –
O=C(c1cccc([N+](=O)[O-])c1)c1ccc(O[C@H]2CC[C@H](C(=O)O)C2)c(Cl)c1Cl [Example 1-12, (1S,3S)-3-[{2,3-dichloro-4-(3-nitrobenzoyl)}phenoxy]cyclopentanecarboxylic acid] | 52% | – | – | –
O=C(c1cccs1)c1ccc(O[C@H]2CC[C@H](C(=O)O)C2)c(Cl)c1Cl [Example 1-3, (1S,3S)-3-[{2,3-dichloro-4-(2-thenoyl)}phenoxy]cyclopentanecarboxylic acid] | – | 2.2 nM | 0/6 | 4/6
O=C(c1ccccc1)c1ccc(O[C@H]2CC[C@H](C(=O)O)C2)c(Cl)c1Cl [Example 1, (1S,3S)-3-[(2,3-dichloro-4-benzoyl)phenoxy]cyclopentanecarboxylic acid] | – | 5.5 nM | 0/6 | 6/6
O=C(c1ccccc1)c1ccc(O[C@H]2CC[C@H](C(=O)O)C2)cc1Cl [Example 1-25, (1S,3S)-3-[(3-chloro-4-benzoyl)phenoxy]cyclopentanecarboxylic acid] | 100% | 3 nM | – | –
